# Measurements reported in US12692274B2, “Tetrahydroisoquinoline derivatives for the treatment of red blood disorders and inflammatory diseases” (Sanofi, priority 2020, dated 2026).
# pEC50, pIC50: −log10 of the molar value. “And” between values parts separate entries of the source, which are not always exact repeats. Equal entries are not always repeated.
# Tests used:
# [1] = target: HIS-Keap1 full length / Biotin-Nrf2 (16-mer) (Homo sapiens, UniProt Q14145); experiment: biochemical
# [2] = test system: NQO1 activation in BEAS-2B cells; experiment: BEAS-2B cellular MTT assay of NQO1 activation, 0% HSA; type: cell-based; settings: serum free, read-out: BEAS EC50 (nM) serum free
# In short: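 For the 0% HSA condition, cells were seeded into collagen plates in HSA-free medium. Culture was BEAS-2B in BEBM plus BEGM SingleQuots lacking GA-1000, held under 70% confluence, at a seeding density reaching 95-100% confluence by 48 h.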
# [3] = test system: NQO1 activation in BEAS-2B cells; experiment: BEAS-2B cellular MTT assay of NQO1 activation, 0.3% HSA; type: cell-based; settings: BEAS+, read-out: BEAS+ EC50
# In short: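 MTT read-out in BEAS-2B cells grown in BEBM with SingleQuots, no GA-1000, kept below 70% confluence; plates coated with collagen, with 0.3% or 0% HSA medium, seeded to 95-100% confluency at 48 h, 37 °C, 5% CO2.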
# Sequence of HIS-Keap1 full length / Biotin-Nrf2 (16-mer) (Q14145 whole entry): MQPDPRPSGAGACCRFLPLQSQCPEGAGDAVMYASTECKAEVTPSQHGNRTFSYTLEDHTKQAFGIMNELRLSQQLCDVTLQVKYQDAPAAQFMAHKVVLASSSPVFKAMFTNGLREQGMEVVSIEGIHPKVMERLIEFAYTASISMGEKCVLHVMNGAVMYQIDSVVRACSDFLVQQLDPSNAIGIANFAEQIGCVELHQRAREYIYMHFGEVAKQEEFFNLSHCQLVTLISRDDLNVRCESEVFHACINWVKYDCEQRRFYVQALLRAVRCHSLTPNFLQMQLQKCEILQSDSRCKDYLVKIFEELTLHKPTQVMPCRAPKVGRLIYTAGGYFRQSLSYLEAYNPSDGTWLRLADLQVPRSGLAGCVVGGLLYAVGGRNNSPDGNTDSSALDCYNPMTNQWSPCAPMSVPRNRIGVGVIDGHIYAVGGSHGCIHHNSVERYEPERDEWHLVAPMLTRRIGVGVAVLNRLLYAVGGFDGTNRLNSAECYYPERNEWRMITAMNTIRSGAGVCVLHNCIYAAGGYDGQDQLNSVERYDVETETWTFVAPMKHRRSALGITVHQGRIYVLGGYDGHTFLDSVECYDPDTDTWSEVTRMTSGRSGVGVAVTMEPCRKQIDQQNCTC
Structure (SMILES),pIC50 [1],EC50 ([2]; Homo sapiens) [nM],EC50 [2] [nM],pEC50 [3],pEC50 ([3]; Homo sapiens),IC50 [1]
O=C(O)CC1c2ccc3c(c2)CN(CC3)C(=O)c2c(F)cc(cc2F)CCCCCCn2nnc3cc1ccc32 (stereo not shown) [Compound 243],8.59,40.7,48.7,6.98,7.14,
Cc1c2ccc3c1nnn3CCCCCCOc1ccc(cc1)C(=O)N1CCc3ccc(cc3C1)C2CC(=O)O (stereo not shown) [Compound 247],8.80 and 8.77,29.4,26.3,7.33,7.34,
O=C(O)CC1c2ccc3c(c2)CN(CC3)C(=O)c2ccc(cc2F)CCCCCn2nnc3cc1ccc32 (stereo not shown) [Compound 252],,15.5,,,7.67,1.2 nM and 1.3 nM (2×) and 1.4 nM
Cc1c2ccc3c1nnn3CCCCCCc1cc(F)c(c(F)c1)C(=O)N1CCc3ccc(cc3C1)C2CC(=O)O (stereo not shown) [Compound 253],8.89,5.4,,,8.18,
Cc1c2ccc3c1nnn3CCCCCOc1ccc(c(F)c1)C(=O)N1CCc3ccc(cc3C1)[C@@H]2CC(=O)O [Compound 254],8.74,16,17.2,7.65,7.79,
C[C@@H](C(=O)O)[C@@H]1c2ccc3c(c2)CN(CC3)C(=O)c2c(F)cc(cc2F)OCCCCCCn2nnc3cc1ccc32 [Compound 256],7.06,> 10000,,,< 5.00,
C[C@@H](C(=O)O)[C@H]1c2ccc3c(c2)CN(CC3)C(=O)c2c(F)cc(cc2F)OCCCCCCn2nnc3cc1ccc32 [Compound 258],8.31,9080,9480,5.60,5.58,
Cc1c2ccc3c1nnn3CCCCCOc1ccc(c(F)c1)C(=O)N1CCc3ccc(cc3C1)[C@H]2CC(=O)O [Compound 259],8.39,20.2,18.7,7.11,7.32,
Cc1cc2ccc1OCCCCCCn1nnc3c(C)c(ccc31)C(CC(=O)O)c1ccc3c(c1)CN(CC3)C2=O (stereo not shown) [Compound 260],8.22,400,403,6.31,6.47,
Cc1cc2ccc1OCCCCCn1nnc3c(C)c(ccc31)C(CC(=O)O)c1ccc3c(c1)CN(CC3)C2=O (stereo not shown) [Compound 261],8.52,89.8,93,6.95,6.70,
Cc1c2ccc3c1nnn3CCCCCc1cc(F)c(c(F)c1)C(=O)N1CCc3ccc(cc3C1)C2CC(=O)O (stereo not shown) [Compound 263],8.57 and 8.52,18.3,,,7.69,
Cc1c2ccc3c1nnn3CCCCCCc1ccc(cc1F)C(=O)N1CCc3ccc(cc3C1)C2CC(=O)O (stereo not shown) [Compound 264],8.57 and 8.54,3.7,,,8.27,
Cc1c2ccc3c1nnn3CCCCCc1ccc(c(F)c1)C(=O)N1CCc3ccc(cc3C1)C2CC(=O)O (stereo not shown) [Compound 266],9.30,2.1,,,8.59,
Cc1c2ccc3c1nnn3CCCCCc1ccc(cc1F)C(=O)N1CCc3ccc(cc3C1)C2CC(=O)O (stereo not shown) [Compound 267],8.62 and 8.64,3.9,,,8.28,
O=C(O)CC1c2ccc(nc2)OCCCCCOc2ccc(c(F)c2)C(=O)N2CCc3ccc1cc3C2 (stereo not shown) [Compound 268],7.17 and 7.15,505,,,6.25,
Cc1c2ccc3c1nnn3CCCCCCOc1ccc(cc1F)C(=O)N1CCc3ccc(cc3C1)C2CC(=O)O (stereo not shown) [Compound 270],8.40 and 8.44,56.5,,,7.25,
Cc1c2ccc3c1nnn3CCCCCCc1ccc(c(F)c1)C(=O)N1CCc3ccc(cc3C1)C2CC(=O)O (stereo not shown) [Compound 272],8.96 and 8.89,2.5,,,8.48,
Cc1c2ccc3c1nnn3CCCCCOc1ccc(cc1F)C(=O)N1CCc3ccc(cc3C1)C2CC(=O)O (stereo not shown) [Compound 275],8.72,123,,,7.07,
O=C(O)CC1c2ccc3c(c2)CN(CC3)C(=O)c2ccc(cc2)CCCCCn2nnc3cc1ccc32 (stereo not shown) [Compound 276],8.66 and 8.70 and 8.68,88.5,,,7.31,
"O=C(O)CC1c2cnc(nc2)OCCCCCc2ccc(cc2)C(=O)N2CCc3ccc1cc3C2 (stereo not shown) [Compound 277, 2-(2-oxo-12-oxa-1,14,28-triazapentacyclo[16.5.3.23,6.213,16.021,25]triaconta-3,5,13(28),14,16(27),18(26),19,21(25),29-nonaen-17-yl)acetic Acid]",8.60 and 8.72 and 8.57 and 8.77,459,,,5.47,
O=C(O)CC1c2ccc3c(c2)CN(CC3)C(=O)c2ccc(cc2F)CCCCCCn2nnc3cc1ccc32 (stereo not shown) [Compound 278],,136,,,6.80,1.8 nM (2×) and 1.4 nM and 1.3 nM
CC(C)(C(=O)O)C1c2ccc3c(c2)CN(CC3)C(=O)c2ccc(cc2)CCCCCCn2nnc3cc1ccc32 (stereo not shown) [Compound 279],,10.8,,,7.97,2.3 nM and 2.2 nM (2×) and 2.1 nM

Structure (SMILES),pIC50 [1],EC50 ([2]; Homo sapiens) [nM],EC50 [2] [nM],pEC50 [3],pEC50 ([3]; Homo sapiens),IC50 [1]
O=C(O)CC1c2ccc3c(c2)CN(CC3)C(=O)c2ccc(cc2)CCCCCCn2nnc3cc1ccc32 (stereo not shown) [Compound 280],,108,,,6.94,2.3 nM (2×) and 2.8 nM (2×)
Cc1c2ccc3c1nnn3CCCCCOc1ccc(c3ccccc13)C(=O)N1CCc3ccc(cc3C1)C2CC(=O)O (stereo not shown) [Compound 283],8.96 and 8.77,450,,,6.38,
Cc1c2ccc3c1nnn3CCCCCCOc1ccc(c3ccccc13)C(=O)N1CCc3ccc(cc3C1)C2CC(=O)O (stereo not shown) [Compound 284],9.40 and 9.52,3.4,,,7.64,
Cc1c2ccc3c1nnn3CCCCCc1ccc(cc1)C(=O)N1CCc3ccc(cc3C1)[C@@H]2CC(=O)O [Compound 285],9.52 and 9.30,4.7,,,8.01,
Cc1c2ccc3c1nnn3CCCCCc1ccc(cc1)C(=O)N1CCc3ccc(cc3C1)[C@H]2CC(=O)O [Compound 286],9.15,15.8,,,7.35,
CC(C)(C(=O)O)C1c2ccc3c(c2)CN(CC3)C(=O)c2ccc(cc2F)OCCCCCCn2nnc3cc1ccc32 (stereo not shown) [Compound 288],8.74 and 8.64,2.7,,,7.46,
Cc1cc2ccc1C(=O)N1CCc3ccc(cc3C1)[C@H]([C@H](C)C(=O)O)c1ccc3c(c1)nnn3CCCCCCO2 [Compound 292],8.11 and 8.23,349,,,6.20,
Cc1cc2cc(C)c1C(=O)N1CCc3ccc(cc3C1)C(CC(=O)O)c1ccc3c(c1)nnn3CCCCCCO2 (stereo not shown) [Compound 293],> 10.00,141,,,6.68,
Cc1cc2ccc1C(=O)N1CCc3ccc(cc3C1)[C@@H]([C@H](C)C(=O)O)c1ccc3c(c1)nnn3CCCCCCO2 [Compound 294],7.66 and 7.76,450,,,6.09,
Cc1cc2ccc1C(=O)N1CCc3ccc(cc3C1)C(CC(=O)O)c1ccc3c(nnn3CCCCCCO2)c1C (stereo not shown) [Compound 297],9.70,1.8,,,8.54,
Cc1cc2ccc1C(=O)N1CCc3ccc(cc3C1)C(C(C)(C)C(=O)O)c1ccc3c(c1)nnn3CCCCCCO2 (stereo not shown) [Compound 299],> 10.00,0.6,,,8.44,
O=C(O)CC1c2ccc(nc2)OCCCCCc2ccc(cc2)C(=O)N2CCc3ccc1cc3C2 (stereo not shown) [Compound 300],> 10.00,3.1,5.4,8.10,7.97,
Cc1cc2ccc1C(=O)N1CCc3ccc(cc3C1)C(CC(=O)O)c1ccc(nc1)OCCCCCCO2 (stereo not shown) [Compound 301],8.17 and 8.22,80.6,144,6.67,6.50,
Cc1c2ccc3c1nnn3CCCCCOc1ccc(c(Cl)c1)C(=O)N1CCc3ccc(cc3C1)C2CC(=O)O (stereo not shown) [Compound 302],9.10 and 9.05,129,213,6.71,6.87,
Cc1c2ccc3c1nnn3CCCCC(F)(F)Oc1ccc(cc1)C(=O)N1CCc3ccc(cc3C1)C2CC(=O)O (stereo not shown) [Compound 304],> 10.00 and 9.70,18.3,,7.54,7.60,
O=C(O)CC1c2ccc3c(c2)CN(CC3)C(=O)c2ccc(cc2Cl)OCCCCCCn2nnc3cc1ccc32 (stereo not shown) [Compound 305],> 10.00,345,,6.13,6.19,
Cc1c2ccc3c1nnn3CCCCCOc1ccc(c(F)c1F)C(=O)N1CCc3ccc(cc3C1)C2CC(=O)O (stereo not shown) [Compound 306],10.00 and > 10.00,68.1,,7.05,6.87,
Cc1c2ccc3c1nnn3CCCCCCc1ccc(cc1)C(=O)N1CCc3ccc(cc3C1)C2CC(=O)O (stereo not shown) [Compound 307],9.70,0.4,,8.28,8.43,
Cn1c2cc3cc(ccc31)OCCCCCCn1nnc3cc(ccc31)C(CC(=O)O)c1ccc3c(c1)CN(CC3)C2=O (stereo not shown) [Compound 310],9.52 and > 10.00,698,,5.02,5.04,
Cc1c2ccc3c1nnn3CCCCCOc1cc(F)c(c(F)c1)C(=O)N1CCc3ccc(cc3C1)C2CC(=O)O (stereo not shown) [Compound 314],8.36 and 8.74,2.6,,,6.96,
Cc1c2ccc3c1nnn3CCCCCCOc1cc(F)c(c(F)c1)C(=O)N1CCc3ccc(cc3C1)C2CC(=O)O (stereo not shown) [Compound 315],9.15 and 9.52,2.2,,,7.59,
Cc1c2ccc3c1nnn3CCCCCOc1ccc(c(F)c1)C(=O)N1CCc3ccc(cc3C1)C2CC(=O)O (stereo not shown) [Compound 316],8.80 and 9.05,141,,,7.11,
